Converted amounts (≈) assume the structure as drawn.
Experiments:
[1] = system: S. epidermidis ATCC 12228; assay: MIC, micro-dilution broth method; assay type: cell-based, Staphylococcus epidermidis; conditions: Gram-positive bacteria, micro-dilution broth; for MIC: Staphylococcus epidermidis, ATCC12228, read-out: MIC, S. epidermidis ATCC 12228
Protocol: (§1) Samples of complexes (about 20 mg) were digested in a concentrated mixture of 36% HCl (1 mL) and 65% HNO3 (6 mL). The contents of Cd (II) in the solid complexes were determined with an F-AAS spectrometer (Analytik Jena, contraAA 300, Jena, Germany) with a continuous source of light and using an air/acetylene flame (Analytik Jena, contraAA 300). Absorbances were measured at the analytical spectral lines at 228.8 nm for Cd (II). The limit of quantification was 0.004 mg/L for Cd (II). The solid samples were decomposed using an Anton Paar Multiwave 3000 (Graz, Austria) closed-system instrument. Mineralization was carried out for 45 min at 240 °C under a pressure of 60 bar. The contents of carbon, hydrogen, and nitrogen were determined with an instrument from Vario Micro Company Elementar Analysensysteme GmbH (Langenselbold, Germany). FTIR spectra were recorded with an IR Tracer-100 Schimadzu Spectrometer (4000–600 cm^−1 with an accuracy of recording of 1 cm^−1, Kyoto, Japan) using KBr pellets. The thermal analyses were carried out with a Netzsch STA 449 F1 Jupiter thermoanalyzer (Netzsch-Geratebau GmbH, Selb, Germany) coupled with a Netzsch Aeolos Quadro QMS 403 mass spectrometer (Netzsch-Geratebau GmbH, Selb, Germany). The samples were heated up to 1000 °C in corundum crucibles with a heating rate of 10 °C/min in an atmosphere of synthetic air (20% O2, 80% N2). The cytotoxic effects of the compounds were evaluated using glioblastoma (T98G), neuroblastoma (SK-N-AS), and lung adenocarcinoma (A549) cell lines and normal human skin fibroblasts (CCD-1059Sk). T98G and SK-N-AS cells were cultured in high-glucose DMEM and A549 cells were cultured in DMEM/F12, while CCD-1059Sk cells were cultured in MEM. All media were supplemented with 10% (FBS), 100 U/mL of penicillin, and […] of streptomycin (PenStrep). Cells were incubated at 37 °C in a humidified atmosphere of 5% CO2. Stock solutions were prepared by dissolving the compounds in sterile dimethyl sulfoxide (DMSO) to obtain a concentration of 50 mg/mL. The cells were seeded into sterile 96-well plates (Nunc) at a density of 1 × 10^5 cells/mL. After 24 h of incubation, the medium was removed from each well, and then the cells were incubated for the next 24 h with different concentrations of the tested compounds (1–100 µg/mL) in their respective media containing 2% FBS. The cytotoxicity of the compounds was evaluated using an MTT assay, which was based on the conversion of 3-(4,5-dimethylthiazol-2-yl)-2,5-diphenyltetrazolium bromide (MTT) into dark-blue formazan crystals. Briefly, after 24 h of incubation of the cells with varying concentrations of the tested compounds, all culture media were removed from the plates. The cells were washed with PBS, and then 100 µL of medium containing 10% MTT solution (5 mg/mL) was added to each well. After 3 h of incubation, 100 µL (per well) of 10% SDS buffer solution was added to solubilize the formazan crystals. After overnight incubation, the absorbance was measured at 570 nm using a microplate reader (Epoch, BioTek Instruments). Experiments were repeated twice, and the measurements in each experiment were run in triplicate. The viability of the investigated cells was expressed as the percentage of the viability of the untreated cells, and the results were transformed into IC50 values (expressed as mean ± SD). The complexes were screened for antibacterial and antifungal activity by using the micro-dilution broth method with Mueller–Hinton broth for the growth of bacteria or Mueller–Hinton broth with 2% glucose for the growth of fungi. […]

[2] = system: P. aeruginosa ATCC 9027; assay: MIC, micro-dilution broth method; assay type: cell-based, Pseudomonas aeruginosa; conditions: for MIC: Pseudomonas aeruginosa, ATCC9027, Gram-negative bacteria
Protocol: as §1

[3] = system: B. cereus ATCC 10876; assay: MIC, micro-dilution broth method; assay type: cell-based, Bacillus cereus; conditions: Gram-positive bacteria, micro-dilution broth; for MIC: Bacillus cereus, ATCC10876, read-out: MIC, B. cereus ATCC 10876
Protocol: as §1

[4] = system: C. parapsilosis ATCC 22019; assay: MIC, micro-dilution broth method; assay type: cell-based, Candida parapsilosis; conditions: Yeasts, micro-dilution broth with 2% glucose; for MIC: Lodderomyces parapsilosis, ATCC22019
Protocol: as §1

[5] = system: P. mirabilis ATCC 12453; assay: MIC, micro-dilution broth method; assay type: cell-based, Proteus mirabilis; conditions: for MIC: Proteus mirabilis, ATCC12453, Gram-negative bacteria
Protocol: as §1

[6] = system: E. coli ATCC 25922; assay: MIC, micro-dilution broth method; assay type: cell-based, Escherichia coli; conditions: for MIC: Escherichia coli, ATCC25922, Gram-negative bacteria
Protocol: as §1

[7] = system: C. albicans ATCC 102231; assay: MIC, micro-dilution broth method; assay type: cell-based, Candida albicans; conditions: for MIC: Candida albicans, ATCC102231, read-out: MIC, C. albicans ATCC 102231
Protocol: as §1

[8] = system: C. glabrata ATCC 2091; assay: MIC, micro-dilution broth method; assay type: cell-based; conditions: for MIC: Nakaseomyces glabratus, ATCC2091, read-out: MIC, C. glabrata ATCC 2091
Protocol: as §1

[9] = system: M. luteus ATCC 10240; assay: MIC, micro-dilution broth method; assay type: cell-based, Micrococcus luteus; conditions: Gram-positive bacteria, micro-dilution broth; for MIC: Micrococcus luteus, ATCC10240, read-out: MIC, M. luteus ATCC 10240
Protocol: as §1

[10] = system: B. subtilis ATCC 6633; assay: MIC, micro-dilution broth method; assay type: cell-based, Bacillus subtilis; conditions: Gram-positive bacteria, micro-dilution broth; for MIC: Bacillus subtilis, ATCC6633, read-out: MIC, B. subtilis ATCC 6633
Protocol: as §1

[11] = system: S. aureus ATCC 25923; assay: MIC, micro-dilution broth method; assay type: cell-based, Staphylococcus aureus; conditions: Gram-positive bacteria, micro-dilution broth; for MIC: Staphylococcus aureus, ATCC25923, read-out: MIC, S. aureus ATCC 25923
Protocol: as §1

[12] = Solubility in culture medium (MTT assay); assay type: physicochemical; conditions: culture medium of the MTT assay
Protocol: Samples of complexes (about 20 mg) were digested in a concentrated mixture of 36% HCl (1 mL) and 65% HNO3 (6 mL). The contents of Cd (II) in the solid complexes were determined with an F-AAS spectrometer (Analytik Jena, contraAA 300, Jena, Germany) with a continuous source of light and using an air/acetylene flame (Analytik Jena, contraAA 300). Absorbances were measured at the analytical spectral lines at 228.8 nm for Cd (II). The limit of quantification was 0.004 mg/L for Cd (II). The solid samples were decomposed using an Anton Paar Multiwave 3000 (Graz, Austria) closed-system instrument. Mineralization was carried out for 45 min at 240 °C under a pressure of 60 bar. The contents of carbon, hydrogen, and nitrogen were determined with an instrument from Vario Micro Company Elementar Analysensysteme GmbH (Langenselbold, Germany). FTIR spectra were recorded with an IR Tracer-100 Schimadzu Spectrometer (4000–600 cm^−1 with an accuracy of recording of 1 cm^−1, Kyoto, Japan) using KBr pellets. […] The cytotoxic effects of the compounds were evaluated using glioblastoma (T98G), neuroblastoma (SK-N-AS), and lung adenocarcinoma (A549) cell lines and normal human skin fibroblasts (CCD-1059Sk). […] The cytotoxicity of the compounds was evaluated using an MTT assay, which was based on the conversion of 3-(4,5-dimethylthiazol-2-yl)-2,5-diphenyltetrazolium bromide (MTT) into dark-blue formazan crystals. […]

[13] = system: K. pneumoniae ATCC 13883; assay: MIC, micro-dilution broth method; assay type: cell-based, Klebsiella pneumoniae; conditions: for MIC: Klebsiella pneumoniae, ATCC13883, Gram-negative bacteria
Protocol: as §1

[14] = system: E. faecalis ATCC 29212; assay: MIC, micro-dilution broth method; assay type: cell-based, Enterococcus faecalis; conditions: Gram-positive bacteria, micro-dilution broth; for MIC: Enterococcus faecalis, ATCC29212, read-out: MIC, E. faecalis ATCC 29212
Protocol: as §1

[15] = system: S. typhimurium ATCC 14028; assay: MIC, micro-dilution broth method; assay type: cell-based, Salmonella Typhimurium; conditions: Gram-negative bacteria; for MIC: Salmonella enterica
Protocol: as §1

[16] = system: T98G cells; assay: MTT cytotoxicity assay, glioblastoma T98G; assay type: cell-based, human; conditions: Homo sapiens, MTT assay after 24 h of incubation, read-out: IC50 ± SD, T98G
Protocol: as §1

[17] = system: A549 cells; assay: MTT cytotoxicity assay, lung adenocarcinoma A549; assay type: cell-based, human; conditions: Homo sapiens; lung carcinoma A549, MTT assay after 24 h of incubation; read-out: IC50 ± SD, A549
Protocol: as §1

[18] = system: CCD-1059Sk cells; assay: MTT cytotoxicity assay, normal human skin fibroblasts CCD-1059Sk; assay type: cell-based; conditions: normal human fibroblasts CCD-1059Sk, MTT assay after 24 h of incubation; read-out: IC50 ± SD, CCD-1059-Sk
Protocol: as §1

[19] = system: SK-N-AS cells; assay: MTT cytotoxicity assay, neuroblastoma SK-N-AS; assay type: cell-based, human; conditions: Homo sapiens, SK-N-AS, 24 h, MTT assay after 24 h of incubation, read-out: IC50 ± SD, SK-N-AS
Protocol: as §1

[20] = Yeasts, micro-dilution broth with 2% glucose

With `O.[Cl][Cd][Cl].c1cc(-c2nc3ccncc3[nH]2)ccn1` [C1, Cd(L1)Cl2∙H2O] the “MIC, S. epidermidis ATCC 12228” value [1] was 250 µg/mL, the “MIC, P. aeruginosa ATCC 9027” value ([2]; Gram-negative bacteria) was greater than 1000 µg/mL and the “MIC, B. cereus ATCC 10876” value [3] was 500 µg/mL. The “MIC, C. parapsilosis ATCC 22019” value [4] was 15.6 µg/mL, the “MIC, P. mirabilis ATCC 12453” value ([5]; Gram-negative bacteria) was 1000 µg/mL and the “MIC, E. coli ATCC 25922” value ([6]; Gram-negative bacteria) was 1000 µg/mL. The “MIC, C. albicans ATCC 102231” value [7, 20] was 500 µg/mL, the “MIC, C. glabrata ATCC 2091” value [8, 20] was 62.5 µg/mL and the “MIC, M. luteus ATCC 10240” value [9] was 7.8 µg/mL. For the same molecule, the “MIC, B. subtilis ATCC 6633” value [10] was 7.8 µg/mL, the “MIC, S. aureus ATCC 25923” value [11] was 500 µg/mL and the “solubility in culture medium” value [12] was “Not determined due to low solubility in culture medium”. For the same molecule, the “MIC, K. pneumoniae ATCC 13883” value ([13]; Gram-negative bacteria) was 1000 µg/mL, the “MIC, E. faecalis ATCC 29212” value [14] was 125 µg/mL and the “MIC, S. typhimurium ATCC 14028” value [15] was 1000 µg/mL.
Work on `c1cnc2[nH]c(-c3ccncc3)nc2c1` [L2] yielded an MIC [1] of 1000 µg/mL (≈ 5.1 mM), an MIC [2] greater than 1000 µg/mL and an IC50 [16] of 178 ± 7.3 µM. For the same molecule, the MIC [3] was 250 µg/mL (≈ 1.27 mM), the IC50 [17] was 220 ± 11 µM and the MIC [4] was greater than 1000 µg/mL. The IC50 [18] was greater than 509 µM, the MIC [5] was 1000 µg/mL (≈ 5.1 mM) and the IC50 [19] was 415 ± 17 µM. The MIC [6] was 1000 µg/mL (≈ 5.1 mM), the MIC [7] was 1000 µg/mL (≈ 5.1 mM) and the MIC [8] was greater than 1000 µg/mL. It also gave an MIC [9] of 250 µg/mL (≈ 1.27 mM), an MIC [10] of 500 µg/mL (≈ 2.55 mM) and an MIC [11] of 1000 µg/mL (≈ 5.1 mM). It also gave an MIC [13] greater than 1000 µg/mL, an MIC [14] of 1000 µg/mL (≈ 5.1 mM) and an MIC [15] of 1000 µg/mL (≈ 5.1 mM).
Molecule `c1cncc(-c2nc3cccnc3[nH]2)c1` [L3] has an MIC [1] greater than 1000 µg/mL, an MIC [2] greater than 1000 µg/mL and an IC50 [16] greater than 509 µM. It also gave an MIC [3] of 1000 µg/mL (≈ 5.1 mM), an IC50 [17] greater than 509 µM and an MIC [4] of 1000 µg/mL (≈ 5.1 mM). For the same molecule, the IC50 [18] was greater than 509 µM, the MIC [5] was greater than 1000 µg/mL and the IC50 [19] was greater than 509 µM. The MIC [6] was greater than 1000 µg/mL, the MIC [7] was greater than 1000 µg/mL and the MIC [8] was greater than 1000 µg/mL. It also gave an MIC [9] of 500 µg/mL (≈ 2.55 mM), an MIC [10] of 1000 µg/mL (≈ 5.1 mM) and an MIC [11] greater than 1000 µg/mL. It also gave an MIC [13] greater than 1000 µg/mL, an MIC [14] greater than 1000 µg/mL and an MIC [15] greater than 1000 µg/mL.
`Brc1cnc2[nH]c(-c3cccnc3)nc2c1` [L4] showed an MIC [1] of 1000 µg/mL (≈ 3.63 mM), an MIC [2] greater than 1000 µg/mL and an IC50 [16] greater than 362 µM. For the same molecule, the MIC [3] was 1000 µg/mL (≈ 3.63 mM), the IC50 [17] was greater than 362 µM and the MIC [4] was 1000 µg/mL (≈ 3.63 mM). For the same molecule, the IC50 [18] was greater than 362 µM, the MIC [5] was greater than 1000 µg/mL and the IC50 [19] was greater than 362 µM. The MIC [6] was greater than 1000 µg/mL, the MIC [7] was 500 µg/mL (≈ 1.82 mM) and the MIC [8] was greater than 1000 µg/mL. For the same molecule, the MIC [9] was greater than 1000 µg/mL, the MIC [10] was 1000 µg/mL (≈ 3.63 mM) and the MIC [11] was greater than 1000 µg/mL. For the same molecule, the MIC [13] was greater than 1000 µg/mL, the MIC [14] was 1000 µg/mL (≈ 3.63 mM) and the MIC [15] was greater than 1000 µg/mL.
